Laboratory results taken from patent US20180016593A1, “HERBICIDE-RESISTANT SUNFLOWER PLANTS, POLYNUCLEOTIDES ENCODING HERBICIDE-RESISTANT ACETOHYDROXYACID SYNTHASE LARGE SUBUNIT PROTEINS, AND METHODS OF USE” (priority 2005, published 2018).

How the values were obtained:
[1] = test system: Clearfield sunflower variety A; test: Greenhouse spray injury rating (Example 5); assay type: in vivo; conditions: variety A, 14 DAT
Description: (§1) Methods: Sunflower lines S4897, Clearfield® sunflower varieties A, B, C and a conventional non-Clearfield variety were sprayed with three rates of imazamox (Raptor™), 100, 200 and 300 gm ai/ha plus 0.5% Sun It II and two rates of imazapyr (Arsenal™) 160 and 360 gm ai/ha plus 0.5% Sun It II when the plants were at the two to three leaf stage. Ratings were taken at 14 days after application (DAT) for injury. Injury was rated on a scale from 0 to 9 where […] to 9=dead plant. Twelve plants were sprayed per herbicide/rate treatment. Statistical analysis was conducted with STATGRAPHICS Plus 5.0 by using ANOVA and LSD procedures.
(§2) Results: After plants were sprayed, it was realized that a height difference between S4897 and other sunflower varieties would have impacted the actual herbicide dose that was delivered. The spray boom height had been calibrated against S4897 and since the other varieties were taller and closer to the boom they would have received a greater dose of herbicide. Rates were recalibrated for the other varieties to determine the approximate dose they would have received. Assessments were made as presented in Table 2 since it was not possible to make a direct rate comparison due to the effect of the height. For example injury scores were compare for S4897 treated imazamox rate 100 gm ai/ha to the other varieties treated at 75 gm ai/ha. The treatment dose of 300 gm ai/ha for line S4897 was equivalent to the treatment of 200 gm ai/ha for the other varieties, which approximately was 300 gm ai/ha.

[2] = test system: Clearfield sunflower variety B; test: Greenhouse spray injury rating (Example 5); assay type: in vivo; conditions: variety B, 14 DAT
Description: as §1, §2

[3] = test system: Clearfield sunflower variety C; test: Greenhouse spray injury rating (Example 5); assay type: in vivo; conditions: variety C, 14 DAT
Description: as §1, §2

Sunflower line S4897 = test: Greenhouse spray injury rating (Example 5); assay type: in vivo; conditions: 14 DAT
Description: as §1, §2

[4] = test system: conventional non-Clearfield variety; test: Greenhouse spray injury rating (Example 5); assay type: in vivo; conditions: non-Clearfield, 14 DAT
Description: as §1, §2

[5] = test system: AHAS of S4897 sunflower plants (Ala107-to-Thr); test: AHAS activity inhibition (Example 5); assay type: biochemical, Helianthus annuus; conditions: higher concentration of imazamox; compared to a Clearfield sunflower and conventional non Clearfield variety (FIG. 7)
Experimental: AHAS activity analysis was also conducted by selecting actively growing young leaves from plants that were not sprayed with herbicide at approximately four weeks after planting.

S4897 sunflower plants = test: Greenhouse spray treatment with imazamox (FIG. 3, FIG. 4); assay type: in vivo, Helianthus annuus; conditions: imazamox 100 or 200 g ai/ha, evaluated 17 days after application
Experimental: (§3) The S4897 and IMISUN-1 sunflower plants were spray-treated with imazamox at rate of 200 g ai/ha. […] The photograph was taken a few days after the plants were spray treated.
(§4) FIG. 4 is graphical illustration of herbicide injury in a greenhouse test following the spray treatment of IMISUN-1, wild-type, and S4897 sunflower plants with imazamox at either 100 (light columns) or 200 g ai/ ha (dark columns). […] Herbicide injury was evaluated 17 days after the imazamox application.

[6] = test system: wild-type sunflower plants; test: as above; assay type: in vivo, Helianthus annuus; conditions: imazamox at either 100 or 200 g ai/ha
Experimental: as §3, §4

S4897 plants = test system: S4897 plants; design: species or system Helianthus annuus; conditions: in vivo
Experimental: In field trials in Argentina, S4897 plants were tested for resistance to imazapic. […] This trial had single row plots and was treated on a windy day, so the actual herbicide dose reaching the plants was likely less than was applied.

## COCc1cnc(C2=NC(C)(C(C)C)C(=O)N2)c(C(=O)O)c1 (stereo not shown) [imazamox]
[1]; imazamox 75 gm ai/ha (100/75)
  Injury (scale 0 to 9): 4.3 c
[1]; imazamox 150 gm ai/ha (column 200/150)
  Injury (scale 0 to 9): significantly in juried and had stopped growing
[1]; imazamox 150 gm ai/ha (column 200/150), listed as Imazamox
  Injury (scale 0 to 9): 4.6 c
[1]; imazamox 300 gm ai/ha
  Injury (scale 0 to 9): 6.5 days
[2]; imazamox 75 gm ai/ha (100/75)
  Injury (scale 0 to 9): 1.9 b
[2]; imazamox 150 gm ai/ha
  Injury (scale 0 to 9): 4.8 c
[2]; imazamox 300 gm ai/ha
  Injury (scale 0 to 9): 5.3 c
[3]; imazamox 75 gm ai/ha (100/75)
  Injury (scale 0 to 9): 1.8 b
[3]; imazamox 150 gm ai/ha
  Injury (scale 0 to 9): 2.9 b
[3]; imazamox 300 gm ai/ha
  Injury (scale 0 to 9): 4.6 b
Sunflower line S4897; imazamox 100 gm ai/ha + 0.5% Sun It II, 0 no injury, 9 dead plant
  Injury (scale 0 to 9): 0.5 a
Sunflower line S4897; imazamox 200 gm ai/ha
  Injury (scale 0 to 9): little to no injury
Sunflower line S4897; imazamox 200 gm ai/ha, listed as Imazamox
  Injury (scale 0 to 9): 0.8 a
Sunflower line S4897; imazamox 300 gm ai/ha
  Injury (scale 0 to 9): very little injury
Sunflower line S4897; imazamox 300 gm ai/ha, listed as Imazamox
  Injury (scale 0 to 9): 0.8 a
[4]; imazamox 75 gm ai/ha (100/75)
  Injury (scale 0 to 9): 7.2 days
[4]; imazamox 150 gm ai/ha
  Injury (scale 0 to 9): 8.2 days
[4]; imazamox 300 gm ai/ha
  Injury (scale 0 to 9): 8.7 e
[5]
  inhibition of AHAS activity: less inhibition
S4897 sunflower plants
  herbicide injury (resistance or tolerance vs IMISUN-1 and wild-type): significantly greater resistance or tolerance
[6]
  survival after spray treatment: did not survive

## Cc1cnc(C2=NC(=O)C(C)(C(C)C)N2)c(C(=O)O)c1 (stereo not shown) [imazapic]
S4897 plants
  resistance to imazapic compared with IMISUN-1: clearly superior
